The record followed here is patent publication US20200354426A1 (MEDIMMUNE LIMITED, priority 2016, published 2020).

pEC50: −log10 of the molar value. Numbered stars: 1 amine (or outer) side, 2 acyl side, 3 side chain; on linkers, the order of the positions; unused ones are H or OH. Side chains are listed from the residue outwards. Peptide text beside a SMILES is read from it. * marks the point of attachment. γGlu = O=C(O)[C@H](CCC(=O)[*:2])N[*:1]; Palmitoyl = CCCCCCCCCCCCCCCC(=O)*; Ahx = NCCCCCC(=O)O; βAla = NCCC(=O)O

The term pEC50 denotes the negative decadic logarithm of the EC50, by convention in mol/L.

Holding throughout (assay): cAMP activity assay in assay medium (assay 1)
Common to all, as to assay type: cell-based

The target of experiment [1] is T1, Human GIPr (Homo sapiens, UniProt P48546).
T1 construct: expressed in transfected cells
T1 sequence (P48546 22-466): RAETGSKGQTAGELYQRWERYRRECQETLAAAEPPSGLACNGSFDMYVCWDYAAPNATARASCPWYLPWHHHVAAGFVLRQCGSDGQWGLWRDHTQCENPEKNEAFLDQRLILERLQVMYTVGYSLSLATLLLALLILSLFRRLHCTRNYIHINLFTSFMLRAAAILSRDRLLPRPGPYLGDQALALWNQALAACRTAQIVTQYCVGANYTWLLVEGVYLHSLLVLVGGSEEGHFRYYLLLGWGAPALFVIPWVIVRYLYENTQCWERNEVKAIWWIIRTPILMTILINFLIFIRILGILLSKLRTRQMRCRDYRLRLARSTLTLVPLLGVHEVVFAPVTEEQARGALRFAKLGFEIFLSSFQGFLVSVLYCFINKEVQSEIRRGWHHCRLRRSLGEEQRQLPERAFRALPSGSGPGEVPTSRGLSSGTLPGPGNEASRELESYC
The following applies: assay medium; Table 4; read-out: hGIPR EC50. An excerpt: (§1) Biological Activity of Peptides in Cell-Based cAMP Activity Assay (Assay 1):
(§2) All sample dilutions were made in duplicate.

Experiment [2] deals with T2, Human GlucR (Homo sapiens, UniProt P47871).
T2 construct: expressed in transfected cells
T2 sequence (P47871 26-477): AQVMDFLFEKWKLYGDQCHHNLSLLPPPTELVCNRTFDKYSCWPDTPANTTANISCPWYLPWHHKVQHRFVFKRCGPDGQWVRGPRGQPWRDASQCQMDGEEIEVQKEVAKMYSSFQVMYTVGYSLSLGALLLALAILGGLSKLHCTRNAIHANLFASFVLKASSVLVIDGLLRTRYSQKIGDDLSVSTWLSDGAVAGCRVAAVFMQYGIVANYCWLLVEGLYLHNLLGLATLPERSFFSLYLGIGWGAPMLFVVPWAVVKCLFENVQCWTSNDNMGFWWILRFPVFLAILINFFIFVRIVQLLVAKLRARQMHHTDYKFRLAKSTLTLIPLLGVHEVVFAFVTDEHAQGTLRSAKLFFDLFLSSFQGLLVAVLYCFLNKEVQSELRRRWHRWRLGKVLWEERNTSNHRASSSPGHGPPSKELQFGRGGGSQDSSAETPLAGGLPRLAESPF
The following applies: assay medium; Table 4; read-out: hGlucR EC50.
From the text: as §1, §2

Experiment [3] has as its target Human GLP1R (Homo sapiens, UniProt P43220). Also on record: expressed in transfected cells. The following applies: assay medium; Table 4; read-out: hGLP1R EC50.
From the text: as §1, §2

Human GLP1R, sequence (P43220 24-463): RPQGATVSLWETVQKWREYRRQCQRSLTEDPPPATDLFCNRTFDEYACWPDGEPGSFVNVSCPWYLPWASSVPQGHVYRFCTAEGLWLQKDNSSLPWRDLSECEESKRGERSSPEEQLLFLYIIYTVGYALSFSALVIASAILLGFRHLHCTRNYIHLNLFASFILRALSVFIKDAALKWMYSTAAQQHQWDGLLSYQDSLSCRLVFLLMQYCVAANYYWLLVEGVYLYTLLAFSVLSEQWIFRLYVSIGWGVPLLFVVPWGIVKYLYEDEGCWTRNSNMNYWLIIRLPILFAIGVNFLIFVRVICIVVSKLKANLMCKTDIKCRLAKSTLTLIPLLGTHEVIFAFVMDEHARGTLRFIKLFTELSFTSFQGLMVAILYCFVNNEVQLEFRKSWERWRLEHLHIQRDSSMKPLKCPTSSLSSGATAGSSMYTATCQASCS

As for `CCCCCCCCCCCCCCCC(=O)N[C@@H](CCC(=O)NCCCC[C@H](NC(=O)[C@H](Cc1ccc(O)cc1)NC(=O)[C@H](CCCCN)NC(=O)[C@H](CO)NC(=O)[C@H](Cc1ccc(O)cc1)NC(=O)[C@H](CC(=O)O)NC(=O)[C@H](CO)NC(=O)[C@@H](NC(=O)[C@H](Cc1ccccc1)NC(=O)[C@@H](NC(=O)CNC(=O)[C@H](CCC(N)=O)NC(=O)[C@H](CO)NC(=O)[C@@H](N)Cc1c[nH]cn1)[C@@H](C)O)[C@@H](C)O)C(=O)N[C@@H](CC(=O)O)C(=O)N[C@@H](CO)C(=O)N[C@@H](CCCNC(=N)N)C(=O)N[C@@H](CCCNC(=N)N)C(=O)N[C@@H](C)C(=O)N[C@@H](CCCNC(=N)N)C(=O)N[C@@H](CC(=O)O)C(=O)N[C@@H](Cc1ccccc1)C(=O)N[C@H](C(=O)N[C@@H](CCC(=O)O)C(=O)N[C@@H](Cc1c[nH]c2ccccc12)C(=O)N[C@@H](CC(C)C)C(=O)N[C@@H](CCC(=O)O)C(=O)N[C@@H](C)C(=O)NCC(=O)NCC(N)=O)C(C)C)C(=O)O` [g805] (H-HSQGTFTSDYSKYK([γGlu-Palmitoyl])DSRRARDFVEWLEAGG-NH2; N-terminus assumed), the figures for the pEC50 in experiment [1], in experiment [2] and in experiment [3] were 7.00, 11.84 and 10.64, respectively.
As for `CCCCCCCCCCCCCCCC(=O)NCCCCCC(=O)NCCCC[C@H](NC(=O)[C@H](CCC(N)=O)NC(=O)[C@H](C)NC(=O)[C@H](C)NC(=O)[C@H](CCCNC(=N)N)NC(=O)[C@H](CO)NC(=O)[C@H](CC(=O)O)NC(=O)[C@H](CC(C)C)NC(=O)[C@H](Cc1ccc(O)cc1)NC(=O)[C@H](CCCCN)NC(=O)[C@H](CO)NC(=O)[C@H](Cc1ccc(O)cc1)NC(=O)[C@H](CC(=O)O)NC(=O)[C@H](CO)NC(=O)[C@@H](NC(=O)[C@H](Cc1ccccc1)NC(=O)[C@@H](NC(=O)CNC(=O)[C@H](CCC(N)=O)NC(=O)[C@H](CO)NC(=O)[C@@H](N)Cc1c[nH]cn1)[C@@H](C)O)[C@@H](C)O)C(=O)N[C@@H](Cc1ccccc1)C(=O)N[C@H](C(=O)N[C@@H](CCC(N)=O)C(=O)N[C@@H](Cc1c[nH]c2ccccc12)C(=O)N[C@@H](CC(C)C)C(=O)N[C@@H](CCC(=O)O)C(=O)N[C@@H](CCCNC(=N)N)C(=O)NCC(=O)NCC(N)=O)C(C)C` [g806] (H-HSQGTFTSDYSKYLDSRAAQK([Ahx-Palmitoyl])FVQWLERGG-NH2; N-terminus assumed), the pEC50 in experiment [1] was 6.98; in experiment [2], 11.00; in experiment [3] it was 9.77.
Take `CCCCCCCCCCCCCCCC(=O)N[C@@H](CCC(=O)NCCCC[C@H](NC(=O)[C@H](Cc1ccc(O)cc1)NC(=O)[C@H](CCCCN)NC(=O)[C@H](CO)NC(=O)[C@H](Cc1ccc(O)cc1)NC(=O)[C@H](CC(=O)O)NC(=O)[C@H](CO)NC(=O)[C@@H](NC(=O)[C@H](Cc1ccccc1)NC(=O)[C@@H](NC(=O)CNC(=O)[C@H](CCC(N)=O)NC(=O)[C@H](CO)NC(=O)[C@@H](N)Cc1c[nH]cn1)[C@@H](C)O)[C@@H](C)O)C(=O)N[C@@H](CC(=O)O)C(=O)N[C@@H](CO)C(=O)N[C@@H](CCC(=O)O)C(=O)N[C@@H](CCCNC(=N)N)C(=O)N[C@@H](C)C(=O)N[C@@H](CCC(N)=O)C(=O)N[C@@H](CC(=O)O)C(=O)N[C@@H](Cc1ccccc1)C(=O)N[C@H](C(=O)N[C@@H](CCC(N)=O)C(=O)N[C@@H](Cc1c[nH]c2ccccc12)C(=O)N[C@@H](CC(C)C)C(=O)N[C@@H](CCC(=O)O)C(=O)N[C@@H](C)C(=O)NCC(=O)NCC(N)=O)C(C)C)C(=O)O` [g816]: the pEC50 in experiment [1] is 7.70; in experiment [2], 11.96; in experiment [3] it was 10.50.
On to `CCCCCCCCCCCCCCCC(=O)N[C@@H](CCC(=O)NCCCC[C@H](NC(=O)[C@H](Cc1ccc(O)cc1)NC(=O)[C@H](CCCCN)NC(=O)[C@H](CO)NC(=O)[C@H](Cc1ccc(O)cc1)NC(=O)[C@H](CC(=O)O)NC(=O)[C@H](CO)NC(=O)[C@@H](NC(=O)[C@H](Cc1ccccc1)NC(=O)[C@@H](NC(=O)CNC(=O)[C@H](CCC(N)=O)NC(=O)[C@H](CO)NC(=O)[C@@H](N)Cc1c[nH]cn1)[C@@H](C)O)[C@@H](C)O)C(=O)N[C@@H](CC(=O)O)C(=O)N[C@@H](CO)C(=O)N[C@@H](CCCNC(=N)N)C(=O)N[C@@H](C)C(=O)N[C@@H](C)C(=O)N[C@@H](CCC(N)=O)C(=O)N[C@@H](CC(=O)O)C(=O)N[C@@H](Cc1ccccc1)C(=O)N[C@H](C(=O)N[C@@H](CCC(N)=O)C(=O)N[C@@H](Cc1c[nH]c2ccccc12)C(=O)N[C@@H](CC(C)C)C(=O)N[C@@H](CCC(=O)O)C(=O)N[C@@H](C)C(=O)NCC(=O)NCC(N)=O)C(C)C)C(=O)O` [g817] (H-HSQGTFTSDYSKYK([γGlu-Palmitoyl])DSRAAQDFVQWLEAGG-NH2; N-terminus assumed), for which the pEC50 was 7.82 in experiment [1], 11.77 in experiment [2] and 10.60 in experiment [3].
Turning to `CCCCCCCCCCCCCCCC(=O)NCCCCCC(=O)NCCCC[C@H](NC(=O)[C@H](CO)NC(=O)[C@H](CC(=O)O)NC(=O)[C@H](CC(C)C)NC(=O)[C@H](Cc1ccc(O)cc1)NC(=O)[C@H](CCC(=O)O)NC(=O)[C@H](CO)NC(=O)[C@H](Cc1ccc(O)cc1)NC(=O)[C@H](CC(=O)O)NC(=O)[C@H](CO)NC(=O)[C@@H](NC(=O)[C@H](Cc1ccccc1)NC(=O)[C@@H](NC(=O)CNC(=O)[C@H](CCC(N)=O)NC(=O)[C@H](CO)NC(=O)[C@@H](N)Cc1c[nH]cn1)[C@@H](C)O)[C@@H](C)O)C(=O)N[C@@H](CCCNC(=N)N)C(=O)N[C@@H](C)C(=O)N[C@@H](C)C(=O)N[C@@H](CC(=O)O)C(=O)N[C@@H](Cc1ccccc1)C(=O)N[C@H](C(=O)N[C@@H](C)C(=O)N[C@@H](Cc1c[nH]c2ccccc12)C(=O)N[C@@H](CC(C)C)C(=O)N[C@@H](CCC(=O)O)C(=O)N[C@@H](CCCNC(=N)N)C(=O)NCC(=O)NCC(N)=O)C(C)C` [g818] (H-HSQGTFTSDYSEYLDSK([Ahx-Palmitoyl])RAADFVAWLERGG-NH2; N-terminus assumed), the pEC50 in experiment [1] was 7.03; in experiment [2] it was 11.05; in experiment [3], 10.68.
On to `CCCCCCCCCCCCCCCC(=O)NCCC(=O)NCCCC[C@H](NC(=O)[C@H](CO)NC(=O)[C@H](CC(=O)O)NC(=O)[C@H](CC(C)C)NC(=O)[C@H](Cc1ccc(O)cc1)NC(=O)[C@H](CCCCN)NC(=O)[C@H](CO)NC(=O)[C@H](Cc1ccc(O)cc1)NC(=O)[C@H](CC(=O)O)NC(=O)[C@H](CO)NC(=O)[C@@H](NC(=O)[C@H](Cc1ccccc1)NC(=O)[C@@H](NC(=O)CNC(=O)[C@H](CCC(N)=O)NC(=O)[C@H](CO)NC(=O)[C@@H](N)Cc1c[nH]cn1)[C@@H](C)O)[C@@H](C)O)C(=O)N[C@@H](CCCNC(=N)N)C(=O)N[C@@H](C)C(=O)N[C@@H](CCCNC(=N)N)C(=O)N[C@@H](CC(=O)O)C(=O)N[C@@H](Cc1ccccc1)C(=O)N[C@H](C(=O)N[C@@H](C)C(=O)N[C@@H](Cc1c[nH]c2ccccc12)C(=O)N[C@@H](CC(C)C)C(=O)N[C@@H](CCC(=O)O)C(=O)N[C@@H](C)C(=O)NCC(=O)NCC(N)=O)C(C)C` [g819] (H-HSQGTFTSDYSKYLDSK([βAla-Palmitoyl])RARDFVAWLEAGG-NH2; N-terminus assumed), for which the pEC50 in experiment [1] is 6.99; in experiment [2] it was 11.63; in experiment [3] it was 10.74.
Consider `CCCCCCCCCCCCCCCC(=O)N[C@@H](CCC(=O)NCCCC[C@H](NC(=O)[C@H](CCCNC(=N)N)NC(=O)[C@H](CO)NC(=O)[C@H](Cc1ccc(O)cc1)NC(=O)[C@H](CC(=O)O)NC(=O)[C@H](CO)NC(=O)[C@@H](NC(=O)[C@H](Cc1ccccc1)NC(=O)[C@@H](NC(=O)CNC(=O)[C@H](CCC(N)=O)NC(=O)[C@H](CO)NC(=O)[C@@H](N)Cc1c[nH]cn1)[C@@H](C)O)[C@@H](C)O)C(=O)N[C@@H](CC(C)C)C(=O)N[C@@H](CC(=O)O)C(=O)N[C@@H](CO)C(=O)N[C@@H](CCC(=O)O)C(=O)N[C@@H](CCCNC(=N)N)C(=O)N[C@@H](C)C(=O)N[C@@H](CCCNC(=N)N)C(=O)N[C@@H](CC(=O)O)C(=O)N[C@@H](Cc1ccccc1)C(=O)N[C@H](C(=O)N[C@@H](C)C(=O)N[C@@H](Cc1c[nH]c2ccccc12)C(=O)N[C@@H](CC(C)C)C(=O)N[C@H](C(=O)N[C@@H](C)C(=O)NCC(=O)NCC(N)=O)C(C)C)C(C)C)C(=O)O` [g820] (H-HSQGTFTSDYSRK([γGlu-Palmitoyl])LDSERARDFVAWLVAGG-NH2; N-terminus assumed), for which the figures for the pEC50 in experiment [1], in experiment [2] and in experiment [3] were 7.15, 10.93 and 10.47, respectively.
With `CCCCCCCCCCCCCCCC(=O)N[C@@H](CCC(=O)NCCCC[C@H](NC(=O)[C@H](CO)NC(=O)[C@H](CC(=O)O)NC(=O)[C@H](CC(C)C)NC(=O)[C@H](Cc1ccc(O)cc1)NC(=O)[C@H](CCCNC(=N)N)NC(=O)[C@H](CO)NC(=O)[C@H](Cc1ccc(O)cc1)NC(=O)[C@H](CC(=O)O)NC(=O)[C@H](CO)NC(=O)[C@@H](NC(=O)[C@H](Cc1ccccc1)NC(=O)[C@@H](NC(=O)CNC(=O)[C@H](CCC(N)=O)NC(=O)[C@H](CO)NC(=O)[C@@H](N)Cc1c[nH]cn1)[C@@H](C)O)[C@@H](C)O)C(=O)N[C@@H](CCCNC(=N)N)C(=O)N[C@@H](C)C(=O)N[C@@H](CCCNC(=N)N)C(=O)N[C@@H](CC(=O)O)C(=O)N[C@@H](Cc1ccccc1)C(=O)N[C@H](C(=O)N[C@@H](CCC(=O)O)C(=O)N[C@@H](Cc1c[nH]c2ccccc12)C(=O)N[C@@H](CC(C)C)C(=O)N[C@H](C(=O)N[C@@H](C)C(=O)NCC(=O)NCC(N)=O)C(C)C)C(C)C)C(=O)O` [g823] (H-HSQGTFTSDYSRYLDSK([γGlu-Palmitoyl])RARDFVEWLVAGG-NH2; N-terminus assumed), the pEC50 was 7.07 in experiment [1], 11.02 in experiment [2] and 10.01 in experiment [3].
